These results are taken from patent US5681826A, “Saccharide composition with reduced reducibility, and preparation and uses thereof” (Kabushiki Kaisha Hayashibara Seibutsu Kagaku Kenkyujo, priority 1994, dated 1997).

The nature of data set [1]: Reducing power on the Somogyi-Nelson's method expressed by DE. The class given is physicochemical. To be noted: d.s.b. As for the experimental part: The reducing powders of these novel high-purity saccharides were determined on the Somogyi-Nelson's method and expressed by DE.
Data set [2] in a line: Maillard reaction with glycine, absorbance at 480 nm. The class given is physicochemical. The following applies: for Coloration degree (480 nm): one % glycine, 10% saccharide, pH 7.0, 100°C., 90 min, 1-cm cell. As for the experimental part:
A solution, containing one % glycine and 10% of a saccharide preparation PI, P II, P III, P IV or P V in Experiment 4 and 50 mM phosphate buffer (pH 7.0), was kept at 100° C. for 90 min, followed by cooling the resultant solution, and determining for absorbance at a wave length of 480 nm in a 1-cm cell. As a control, maltotriose, maltotetraose, maltopentaose, maltohexaose and maltoheptaose, as a material for the saccharide preparations, were similarly treated as above, and measured for absorbance at a wave length of 480 nm.
A solution, containing one % of glycine, 10% of a high-purity trehalose preparation with a purity of 99.5%, d.s.b., obtained by the method in Experiment 17, and 50 mM phosphate buffer (pH 7.0), was kept at 100° C. for 90 min, followed by cooling the resultant solution and determining the absorbance at a wave length of 480 nm in a 1-cm cell. As a control, glucose and maltose were similarly treated as above, and the resultants were determined for absorbance at a wave length of 480 nm.

Another data set concerns glucoamylase. Description: Enzymatic hydrolysis by glucoamylase. The class given is biochemical. On the procedure:
Fifty mg aliquots of non-reducing saccharide preparations P I, P II, P III, P IV and P V in Experiment 4 were respectively dissolved in one ml of 50 mM acetate buffer (pH 4.5), admixed with one unit of glucoamylase commercialized by Seikagaku-Kogyo Co., Ltd., Tokyo, Japan, to effect enzymatic hydrolysis at 40° C. for 6 hours. HPLC analysis only detected glucose and trehalose in all resultant mixtures. The percentages and the molecular ratios of glucose to trehalose in each saccharide are in Table 5.

In a further data set the test system is β-amylase. Briefly: Hydrolysis by β-amylase. The class given is biochemical.
Another data set has as its system α-amylase. Briefly: Hydrolysis by α-amylase derived from pig pancreas. The class given is in vitro ADME. On the procedure: (§1) The enzymatic reaction with the α-amylase was as follows: Dissolve 10 mg of a substrate in one ml of 50 mM phosphate buffer (pH 6.9), mix the resultant solution with one unit of the α-amylase, and incubate the resultant mixture at 37° C. for 18 hours. The enzymatic reaction with the α-glucosidase was conducted under the same conditions as in the case of α-amylase except that 50 mM acetate buffer (pH 4.0) was used as a buffer. The enzymatic reaction using the rat intestinal acetone powder was carried out under the same conditions as in the case of α-amylase except that 50 mM maleate buffer (pH 6.0) was used as a buffer. The saccharide compositions obtained by the α-amylase, α-glucosidase and rat intestinal acetone powder are respectively in Tables 6, 7 and 8.

In the next data set the test system is α-glucosidase. Description: Hydrolysis by α-glucosidase derived from rice. The class given is biochemical. The following applies: pH 4.0, 37°C., 18 hours. As for the experimental part: as §1
Data set [3] in a line: Hydrolysis by rat intestinal acetone powder. The class given is in vitro ADME. The following applies: pH 6.0, 37°C., 18 hours. As for the experimental part:
as §1

Another data set is described as follows: in vivo. To be noted: mouse, in vivo, po. The text has this: (§2) By using 7-week old dd-strain mice, the non-reducing saccharide preparation P I, P II, P III, P IV or P V was orally administered to the mice for acute toxicity test.
The subject of the next data set is mice. Briefly: Acute toxicity test (Experiment 8). To be noted: oral, highest possible doses.
Excerpt: as §2

For data set [4], the target named is T1, trehalose-releasing enzyme (Rhizobium sp. M-11, UniProt Q53238).
T1 construct: M-11 culture
T1 sequence (Q53238 1-596): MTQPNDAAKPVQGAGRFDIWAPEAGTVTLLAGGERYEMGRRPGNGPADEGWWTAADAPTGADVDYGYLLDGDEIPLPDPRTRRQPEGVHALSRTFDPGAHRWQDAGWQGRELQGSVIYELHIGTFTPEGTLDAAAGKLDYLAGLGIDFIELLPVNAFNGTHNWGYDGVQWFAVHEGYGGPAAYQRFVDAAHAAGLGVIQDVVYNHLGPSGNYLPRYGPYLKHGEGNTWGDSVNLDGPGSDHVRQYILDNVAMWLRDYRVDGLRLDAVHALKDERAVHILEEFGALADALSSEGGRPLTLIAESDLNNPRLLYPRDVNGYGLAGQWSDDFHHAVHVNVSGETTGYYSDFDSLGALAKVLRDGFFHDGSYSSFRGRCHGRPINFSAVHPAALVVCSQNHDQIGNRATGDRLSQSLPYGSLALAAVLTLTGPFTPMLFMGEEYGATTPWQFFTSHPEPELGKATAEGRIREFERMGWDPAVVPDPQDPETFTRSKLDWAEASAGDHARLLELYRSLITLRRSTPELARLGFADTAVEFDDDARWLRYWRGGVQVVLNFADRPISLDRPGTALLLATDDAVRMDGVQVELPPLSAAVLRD
Briefly: Action of trehalose-releasing enzyme on α-glycosyltrehalose and maltooligosaccharides (Table 13). The class given is biochemical. The following applies: 20% substrate, 2 units/g, 40°C., pH 7.0, 48 hours; label = substrate. On the procedure:
An aqueous solution containing 20%, d.s.b., of one of the above 5 non-reducing saccharide preparations, namely α-glycosyltrehalose preparations, was prepared, followed by mixing it with 2 units/g substrate, d.s.b., of the purified trehalose-releasing enzyme obtained in Experiment 15, and subjecting the resultant to an enzymatic reaction at 40° C. and pH 7.0 for 48 hours. The resultant each reaction mixture was desalted, and analyzed for saccharide composition on HPLC using "WAKOBEADS WB-T-330 column", a column of Wako Pure Chemical Industries Ltd., Tokyo, Japan. As a control, a fresh preparation of the same trehalose-releasing enzyme was allowed to act on maltotriose, maltotetraose, maltopentaose, maltohexaose or maltoheptaose, and the resultant each reaction mixture was analyzed for saccharide composition on HPLC.

The test system of data set [5] is non-reducing saccharide-forming enzyme. The class given is biochemical, Rhizobium sp. M-11. To be noted: for Percentage of newly formed product (P I to P V) on HPLC: 20 w/v % substrate, 2 units/g, 40°C., pH 7.0, 48 hours, label = substrate; for Percentage of remaining substrate on HPLC: non-reducing saccharide-forming enzyme, 48 h, pH 7. As for the experimental part:
An aqueous solution containing 20 w/v % glucose, maltose, maltotriose, maltotetraose, maltopentaose, maltohexaose or maltoheptaose as a substrate was prepared, and mixed with 2 units/g substrate, d.s.b., of the purified enzyme preparation obtained in Experiment 2, and the resultant mixture was subjected to an enzymatic reaction at 40° C. and pH 7.0 for 48 hours. The reaction mixture was desalted and analyzed on high-performance liquid chromatography (HPLC) using "WAKOBEADS WB-T-330 COLUMN", a product of Wako Pure Chemical Industries Ltd., Tokyo, Japan. The HPLC procedure was conducted at ambient temperature and a flow rate of 0.5 ml/min of water as an eluent, and "RI-8012", a differential refractometer commercialized by Tosho Corporation, Tokyo, Japan, was used for analyzing reaction products.

The mark [6] stands for this setting: one unit glucoamylase, pH 4.5, 40°C., 6 hours.
Setting [7] is: one unit, pH 6.9, 37°C., 18 hours.

Usually LD50 stands for the dose at which mortality reaches 50%. A low value points to a more toxic substance.

Regarding `OC[C@H]1O[C@H](O[C@H]2O[C@H](CO)[C@@H](O[C@H]3O[C@H](CO)[C@@H](O[C@H]4O[C@H](CO)[C@@H](O[C@H]5O[C@H](CO)[C@@H](O[C@H]6O[C@H](CO)[C@@H](O)[C@H](O)[C@H]6O)[C@H](O)[C@H]5O)[C@H](O)[C@H]4O)[C@H](O)[C@H]3O)[C@H](O)[C@H]2O)[C@H](O)[C@@H](O)[C@@H]1O` [P IV, α-maltotetraosyltrehalose], the “DE (reducing power)” value in [1] is on record as 0.27. In addition, in data set [2], the “Coloration degree relative to corresponding material maltooligosaccharides” value is given as 3-6% and the “Coloration degree (480 nm)” value is 0.016. In the data set on glucoamylase, the “Hydrolysis by glucoamylase” value is “hydrolyzed into 4 glucose molecules and one trehalose molecule”. In addition, in the data set with glucoamylase (setting [6]), the Glucose is 68.3%, the “Molecular ratio (Glucose/Trehalose)” value was determined as 4.09 and the Trehalose was found to be 31.7%. Besides, in the data set on β-amylase, the “Hydrolysis by β-amylase” value was “one maltose molecule and one P II molecule”. In the data set with α-amylase, the “Hydrolysis by α-amylase” value is “hydrolyzed by the α-amylase into lower molecular weight oligosaccharides”. Further, in the data set with α-amylase (setting [7]), the “Saccharide composition of hydrolysate by α-amylase: G1 (glucose)” value was 1.6, the “Saccharide composition of hydrolysate by α-amylase: G2 (maltose)” value was 7.5, the “Saccharide composition of hydrolysate by α-amylase: G3 (maltotriose)” value is 40.4 and the “Saccharide composition of hydrolysate by α-amylase: P I” value was 47.2. Further, the “Saccharide composition of hydrolysate by α-amylase: P II” value with α-amylase (setting [7]) came to 3.3. For the same molecule, in the data set on α-glucosidase, the “Saccharide composition of hydrolysate by α-glucosidase: Glucose” value is given as 69.5%, the “Saccharide composition of hydrolysate by α-glucosidase: Other saccharides” value turned out to be 0.3% and the “Saccharide composition of hydrolysate by α-glucosidase: Trehalose” value is reported as 30.2%. Besides, in [3], the “Saccharide composition of hydrolysate by rat intestinal acetone powder: Glucose” value stood at 68.8%, the “Saccharide composition of hydrolysate by rat intestinal acetone powder: Other saccharides” value is 0.4% and the “Saccharide composition of hydrolysate by rat intestinal acetone powder: Trehalose” value is on record as 30.8%. In the data set “in vivo”, this molecule gave an LD50 not below 50000 mg/kg. For the same molecule, the Mortality entry with mice is on record as “no mouse died”. Further, in [4], the “Percentage of reducing saccharide released (glucose, maltose, maltotriose, maltotetraose or maltopentaose)” value was 65.5% and the “Percentage of trehalose released” value was found to be 34.2%.
With `OC[C@H]1O[C@H](O[C@H]2[C@H](O)[C@@H](O)[C@@H](O[C@H]3[C@H](O)[C@@H](O)[C@@H](O[C@H]4[C@H](O)[C@@H](O)[C@@H](O[C@H]5[C@H](O)[C@@H](O)C(O)O[C@@H]5CO)O[C@@H]4CO)O[C@@H]3CO)O[C@@H]2CO)[C@H](O)[C@@H](O)[C@@H]1O` (stereo partly drawn) [Maltopentaose], in [5], the “Percentage of newly formed product (P I to P V) on HPLC” value (shortened to “Percentage … (P I to P V) on HPLC”) amounted to 92.7% and the “Percentage of remaining substrate on HPLC” value is 7.3%. Further, in data set [2], the “Coloration degree (480 nm)” value was 0.369.
In the case of `OC[C@H]1O[C@H](O[C@H]2[C@H](O)[C@@H](O)C(O)O[C@@H]2CO)[C@H](O)[C@@H](O)[C@@H]1O` (mixture of isomers) [Maltose], in [5], the “Formation of saccharide from substrate” value is reported as “no saccharide is formed” and the “Percentage of remaining substrate on HPLC” value turned out to be 100.0%. Also, the “Coloration degree (480 nm)” value in data set [2] worked out at 0.926.
With `OC[C@H]1O[C@H](O[C@H]2[C@H](O)[C@@H](O)[C@@H](O[C@H]3[C@H](O)[C@@H](O)[C@@H](O[C@H]4[C@H](O)[C@@H](O)[C@@H](O[C@H]5[C@H](O)[C@@H](O)[C@@H](O[C@H]6[C@H](O)[C@@H](O)C(O)O[C@@H]6CO)O[C@@H]5CO)O[C@@H]4CO)O[C@@H]3CO)O[C@@H]2CO)[C@H](O)[C@@H](O)[C@@H]1O` (stereo partly drawn) [Maltohexaose], in [5], the “Percentage … (P I to P V) on HPLC” value is 93.5% and the “Percentage of remaining substrate on HPLC” value turned out to be 6.5%. Moreover, the “Coloration degree (480 nm)” value in data set [2] was 0.318.
The like results for `OC[C@H]1O[C@H](O[C@H]2[C@H](O)[C@@H](O)[C@@H](O[C@H]3[C@H](O)[C@@H](O)C(O)O[C@@H]3CO)O[C@@H]2CO)[C@H](O)[C@@H](O)[C@@H]1O` (stereo partly drawn) [Maltotriose] were, in that order, 35.0%, 65.0% and 0.623.
Turning to `OC[C@H]1OC(O)[C@H](O)[C@@H](O)[C@@H]1O` (stereo partly drawn) [Glucose], in data set [5], the “Formation of saccharide from substrate” value was “no saccharide is formed” and the “Percentage of remaining substrate on HPLC” value turned out to be 100.0%. Further, the “Coloration degree (480 nm)” value in data set [2] amounted to 1.671.
Turning to `OC[C@H]1O[C@H](O[C@H]2[C@H](O)[C@@H](O)[C@@H](O[C@H]3[C@H](O)[C@@H](O)[C@@H](O[C@H]4[C@H](O)[C@@H](O)C(O)O[C@@H]4CO)O[C@@H]3CO)O[C@@H]2CO)[C@H](O)[C@@H](O)[C@@H]1O` (stereo partly drawn) [Maltotetraose], in data set [5], the “Percentage … (P I to P V) on HPLC” value was found to be 85.6% and the “Percentage of remaining substrate on HPLC” value is 14.4%. In addition, in [2], the “Coloration degree (480 nm)” value stood at 0.475.
On the same counts, the results for `OC[C@H]1O[C@H](O[C@H]2[C@H](O)[C@@H](O)[C@@H](O[C@H]3[C@H](O)[C@@H](O)[C@@H](O[C@H]4[C@H](O)[C@@H](O)[C@@H](O[C@H]5[C@H](O)[C@@H](O)[C@@H](O[C@H]6[C@H](O)[C@@H](O)[C@@H](O[C@H]7[C@H](O)[C@@H](O)C(O)O[C@@H]7CO)O[C@@H]6CO)O[C@@H]5CO)O[C@@H]4CO)O[C@@H]3CO)O[C@@H]2CO)[C@H](O)[C@@H](O)[C@@H]1O` (stereo partly drawn) [Maltoheptaose] are 93.4%, 6.7% and 0.271.
